The assay addresses T1, PTHR-delNt (Homo sapiens, UniProt Q03431, DEL24-181).
T1 construct: expressed in transfected cells; host or cells: COS-7 cells, transient co-transfection; membranes prepared
T1 sequence (Q03431 with tags, fused parts or gaps DEL24-181): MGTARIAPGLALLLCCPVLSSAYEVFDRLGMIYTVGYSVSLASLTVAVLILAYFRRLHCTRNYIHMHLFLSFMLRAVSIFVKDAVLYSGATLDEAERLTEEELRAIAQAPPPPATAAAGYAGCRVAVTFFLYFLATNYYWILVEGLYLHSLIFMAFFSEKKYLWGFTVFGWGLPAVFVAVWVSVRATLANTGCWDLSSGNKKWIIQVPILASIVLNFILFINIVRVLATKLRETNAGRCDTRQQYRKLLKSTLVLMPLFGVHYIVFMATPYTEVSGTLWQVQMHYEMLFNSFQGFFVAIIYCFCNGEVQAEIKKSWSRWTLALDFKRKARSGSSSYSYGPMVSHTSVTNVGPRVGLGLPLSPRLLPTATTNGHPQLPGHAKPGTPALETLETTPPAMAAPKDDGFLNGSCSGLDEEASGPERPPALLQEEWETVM
Put plainly: Competition binding in COS-7 cell membranes with 125I-[Aib1,3,M]PTH(1-15)NH2 tracer. The conditions noted are these: for reduction (alteration) of binding affinity for PTHR-delNt relative to parent peptide: versus the respective parent peptide; for IC50: COS-7 membranes cotransfected with negative-dominant Gαs. The method, boiled down: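 Membranes (20 µg/well) from COS-7 cells co-transfected with human PTHR lacking residues 24–181 plus dominant-negative Gαs, incubated 90 min at 21 °C with 125I-[Aib1,3,M]PTH(1-15)NH2 and unlabeled peptide (3×10^−9 to 1×10^−5 M), then filtered and gamma-counted. Non-specific binding with 1×10^−6 M [Aib1,3,M]PTH(1-15)NH2; IC50 by four-parameter logistic fit, extrapolated to reference maximal inhibition where incomplete.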

Setting [1] is: [Ala1,Arg19]hPTH(1-31)NH2 analogs, read-out: PTHR-delNT (COS-7) IC50.
The mark [2] stands for this setting: hPTH(1-31)NH2 analogs, read-out: PTHR-delNT (COS-7) IC50.

Several values for one entry are separate records, joined by “and”; a condition that tells them apart may be missing. Identical values can stand only once. Like-named read-outs stand apart in the source and are kept apart here. Where a SMILES comes first, the peptide text is derived from it. Where no end group is shown, it is not given here. [ ]: non-standard residue; d: D form. Apa = (S)-2-amino-4[(2-amino)pyrimidinyl]methylalanine; Phe(4-guanidino) = N=C(N)Nc1ccc(C[C@H](N)C(=O)O)cc1; Cha = N[C@@H](CC1CCCCC1)C(=O)O; Orn = NCCC[C@H](N)C(=O)O

What is called IC50 is the concentration that gives 50% inhibition. As to `CC[C@H](C)[C@H](NC(=O)[C@H](CCC(=O)O)NC(=O)[C@H](CO)NC(=O)[C@@H](NC(=O)[C@H](C)N)C(C)C)C(=O)N[C@@H](CCC(N)=O)C(=O)N[C@@H](CC(C)C)C(=O)N[C@@H](CCSC)C(=O)N[C@@H](Cc1c[nH]cn1)C(=O)N[C@@H](CC(N)=O)C(=O)N[C@@H](CC(C)C)C(=O)NCC(=O)N[C@@H](CCCCN)C(=O)N[C@@H](Cc1c[nH]cn1)C(=O)N[C@@H](CC(C)C)C(=O)N[C@@H](CC(N)=O)C(=O)N[C@@H](CO)C(=O)N[C@@H](CCSC)C(=O)N[C@@H](CCCNC(=N)N)C(=O)N[C@@H](CC1CCCCC1)C(=O)N[C@H](C(=O)N[C@@H](CCC(=O)O)C(=O)N[C@@H](Cc1c[nH]c2ccccc12)C(=O)N[C@@H](CC(C)C)C(=O)N[C@@H](CCCNC(=N)N)C(=O)N[C@@H](CCCCN)C(=O)N[C@@H](CCCCN)C(=O)N[C@@H](CC(C)C)C(=O)N[C@@H](CCC(N)=O)C(=O)N[C@@H](CC(=O)O)C(=O)N[C@H](C(N)=O)C(C)C)C(C)C` [Arg^20→Cha, AlaValSerGluIleGlnLeuMetHisAsnLeuGlyLysHisLeuAsnSerMetArgChaValGluTrpLeuArgLysLysLeuGlnAspVal] (H-AVSEIQLMHNLGKHLNSMR[Cha]VEWLRKKLQDV-NH2; N-terminus assumed), the “reduction (alteration) of binding affinity for PTHR-delNt relative to parent peptide” value (COS-7 membranes) is “three-fold or less”. For the same compound, the IC50 under setting [1] was determined as 0.632 ± 0.079 µM.
Take `CC[C@H](C)[C@H](NC(=O)[C@H](CCC(=O)O)NC(=O)[C@H](CO)NC(=O)[C@@H](NC(=O)[C@@H](N)CO)C(C)C)C(=O)N[C@@H](CCC(N)=O)C(=O)N[C@@H](CC(C)C)C(=O)N[C@@H](CCSC)C(=O)N[C@@H](Cc1c[nH]cn1)C(=O)N[C@@H](CC(N)=O)C(=O)N[C@@H](CC(C)C)C(=O)NCC(=O)N[C@@H](CCCCN)C(=O)N[C@@H](Cc1c[nH]cn1)C(=O)N[C@@H](CC(C)C)C(=O)N[C@@H](CC(N)=O)C(=O)N[C@@H](CO)C(=O)N[C@@H](CCSC)C(=O)N[C@@H](CCC(=O)O)C(=O)N[C@@H](Cc1ccc(NC(=N)N)cc1)C(=O)N[C@H](C(=O)N[C@@H](CCC(=O)O)C(=O)N[C@@H](Cc1c[nH]c2ccccc12)C(=O)N[C@@H](CC(C)C)C(=O)N[C@@H](CCCNC(=N)N)C(=O)N[C@@H](CCCCN)C(=O)N[C@@H](CCCCN)C(=O)N[C@@H](CC(C)C)C(=O)N[C@@H](CCC(N)=O)C(=O)N[C@@H](CC(=O)O)C(=O)N[C@H](C(N)=O)C(C)C)C(C)C` [Arg^20→Gph] (H-SVSEIQLMHNLGKHLNSME[Phe(4-guanidino)]VEWLRKKLQDV-NH2; N-terminus assumed): under setting [2], the IC50 was 2.05 µM.
The same measure, in the same setting: next, `CC[C@H](C)[C@H](NC(=O)[C@H](CCC(=O)O)NC(=O)[C@H](CO)NC(=O)[C@@H](NC(=O)[C@@H](N)CO)C(C)C)C(=O)N[C@@H](CCC(N)=O)C(=O)N[C@@H](CC(C)C)C(=O)N[C@@H](CCSC)C(=O)N[C@@H](Cc1c[nH]cn1)C(=O)N[C@@H](CC(N)=O)C(=O)N[C@@H](CC(C)C)C(=O)NCC(=O)N[C@@H](CCCCN)C(=O)N[C@@H](Cc1c[nH]cn1)C(=O)N[C@@H](CC(C)C)C(=O)N[C@@H](CC(N)=O)C(=O)N[C@@H](CO)C(=O)N[C@@H](CCSC)C(=O)N[C@@H](CCC(=O)O)C(=O)N[C@@H](CCCN)C(=O)N[C@H](C(=O)N[C@@H](CCC(=O)O)C(=O)N[C@@H](Cc1c[nH]c2ccccc12)C(=O)N[C@@H](CC(C)C)C(=O)N[C@@H](CCCNC(=N)N)C(=O)N[C@@H](CCCCN)C(=O)N[C@@H](CCCCN)C(=O)N[C@@H](CC(C)C)C(=O)N[C@@H](CCC(N)=O)C(=O)N[C@@H](CC(=O)O)C(=O)N[C@H](C(N)=O)C(C)C)C(C)C` [Arg^20→Orn] (H-SVSEIQLMHNLGKHLNSME[Orn]VEWLRKKLQDV-NH2; N-terminus assumed): 5.53 µM.
On to `CC[C@H](C)[C@H](NC(=O)[C@H](CCC(=O)O)NC(=O)[C@H](CO)NC(=O)[C@@H](NC(=O)[C@H](C)N)C(C)C)C(=O)N[C@@H](CCC(N)=O)C(=O)N[C@@H](CC(C)C)C(=O)N[C@@H](CCSC)C(=O)N[C@@H](Cc1c[nH]cn1)C(=O)N[C@@H](CC(N)=O)C(=O)N[C@@H](CC(C)C)C(=O)NCC(=O)N[C@@H](CCCCN)C(=O)N[C@@H](Cc1c[nH]cn1)C(=O)N[C@@H](CC(C)C)C(=O)N[C@@H](CC(N)=O)C(=O)N[C@@H](CO)C(=O)N[C@@H](CCSC)C(=O)N[C@@H](CCCNC(=N)N)C(=O)N[C@@H](CCCNC(=N)N)C(=O)N[C@H](C(=O)N[C@@H](CCC(=O)O)C(=O)N[C@@H](Cc1c[nH]c2ccccc12)C(=O)N[C@@H](CC(C)C)C(=O)N[C@@H](CCCNC(=N)N)C(=O)N[C@@H](CCCCN)C(=O)N[C@@H](CCCCN)C(=O)N[C@@H](CC(C)C)C(=O)N[C@@H](CCC(N)=O)C(=O)N[C@@H](CC1CCCCC1)C(=O)N[C@H](C(N)=O)C(C)C)C(C)C` [Asp^30→Cha] (H-AVSEIQLMHNLGKHLNSMRRVEWLRKKLQ[Cha]V-NH2; N-terminus assumed), for which, under setting [1], the IC50 was found to be 0.305 ± 0.126 µM.
In the case of “AVSEIQLMHNLGKHLNSMERVEWLRKKLQDV-NH2 [Arg^19→Glu]”, where the note is “COS-7 membranes”, the “reduction (alteration) of binding affinity for PTHR-delNt relative to parent peptide” value was 50 fold and 90 fold.
With “AVSEIQLMHNLGKHLNSMRREEWLRKKLQDV-NH2 [Val^21→Glu]”, the “reduction (alteration) of binding affinity for PTHR-delNt relative to parent peptide” value (COS-7 membranes) is listed as “about four-fold”. The compound further had a 50% inhibitory concentration (IC50) (PTHR-delNT (COS-7) IC50, [Ala1,Arg19]hPTH(1-31)NH2 analogs) of 1.61 µM.
In the case of “AVSEIQLMHNLGKHLNSMRRVEWERKKLQDV-NH2 [Leu^24→Glu]”, where the note is “COS-7 membranes”, the “effect on binding to PTHR-delNt (in words)” value is given as “only mildly impaired binding to PTHR-delNt” and the “reduction (alteration) of binding affinity for PTHR-delNt relative to parent peptide” value is “less than three-fold”. In addition, under setting [1], the IC50 came to 1.04 µM.
Regarding “AVSEIQLMHNLGKHLNSMRRVEWLEKKLQDV-NH2 [Arg^25→Glu]”, the “reduction (alteration) of binding affinity for PTHR-delNt relative to parent peptide” value (COS-7 membranes) was “about four-fold”. Also, the IC50 under setting [1] was 1.63 µM.
With “AVSEIQLMHNLGKHLNSMRRVEWLREKLQDV-NH2 [Lys^26→Glu]”, the IC50 under setting [1] is 0.832 ± 0.215 µM.
“AVSEIQLMHNLGKHLNSMRRVEWLRKELQDV-NH2 [Lys^27→Glu]”: under setting [1], the IC50 stood at 1.27 µM.
For “Arg^20→Apa: hPTH(1-31)NH2 analog with Arg^20 replaced by (S)-2-amino-4[(2-amino)pyrimidinyl]methylalanine (Apa) (SVSEIQLMHNLGKHLNSME[Apa]VEWLRKKLQDV-NH2)”, under setting [2], the IC50 came out at 5.74 µM.
Take “SVSEIQLMHNLGKHLNSMARVAWLRKKLQDV-NH2 [Glu^19,22→Ala,Ala]”: under setting [2], the IC50 came to 0.619 ± 0.075 µM.
Same read-out and setting: with “SVSEIQLMHNLGKHLNSMARVEWLRKKLQDV-NH2 [Glu^19→Ala]” the figure was 2.94 µM.
Consider “SVSEIQLMHNLGKHLNSMEAVEWLRKKLQDV-NH2 [Arg^20→Ala]”, for which, for the setting “COS-7 membranes”, the “reduction (alteration) of binding affinity for PTHR-delNt relative to parent peptide” value was “approximate five-fold reduction”. For the same compound, the IC50 under setting [2] was determined as 19.3 µM.
Turning to “SVSEIQLMHNLGKHLNSMEEVEWLRKKLQDV [Arg^20→Glu]”, the “reduction (alteration) of binding affinity for PTHR-delNt relative to parent peptide” value (COS-7 membranes) is listed as “less than three-fold” and the “reduction (alteration) of binding affinity for PTHR-delNt relative to parent peptide” value (COS-7 membranes, listed as Arg^20 to Glu substitution in PTH(1-31)NH2) is recorded as “approximately four-fold reduction”. For the same compound, the IC50 amounted to 0.776 ± 0.38 µM under setting [1] and 14.7 µM under setting [2].
Take “SVSEIQLMHNLGKHLNSMEKVEWLRKKLQDV-NH2 [Arg^20→Lys]”: under setting [2], the IC50 came to 7.11 µM.
Same read-out and setting: with “SVSEIQLMHNLGKHLNSMEQVEWLRKKLQDV-NH2 [Arg^20→Gln]” the figure was 10.3 µM.
With “SVSEIQLMHNLGKHLNSMERAEWLRKKLQDV-NH2 [Val^21→Ala]”, the IC50 under setting [2] is 5.69 µM.
The same measure, in the same setting: next, “SVSEIQLMHNLGKHLNSMERVAWLRKKLQDV-NH2 [Glu^22→Ala]”: 5.86 µM.
Consider “SVSEIQLMHNLGKHLNSMERVEALRKKLQDV-NH2 [Trp^23→Ala]”, for which, under “COS-7 membranes”, the “reduction (alteration) of binding affinity for PTHR-delNt relative to parent peptide” value is recorded as “only two-fold”. Moreover, under setting [2], the IC50 was 7.36 µM.
Regarding “SVSEIQLMHNLGKHLNSMERVEWARKKLQDV-NH2 [Leu^24→Ala]”, the “reduction (alteration) of binding affinity for PTHR-delNt relative to parent peptide” value (COS-7 membranes) is “only two-fold”. Moreover, the IC50 under setting [2] was 8.76 µM.
Turning to “SVSEIQLMHNLGKHLNSMERVEWLAKKLQDV-NH2 [Arg^25→Ala]”, the IC50 under setting [2] was 7.18 µM.
Same read-out and setting: with “SVSEIQLMHNLGKHLNSMERVEWLRAKLQDV-NH2 [Lys^26→Ala]” the figure was 6.21 µM; with “SVSEIQLMHNLGKHLNSMERVEWLRKALQDV-NH2 [Lys^27→Ala]”, 7.29 µM.
Consider “SVSEIQLMHNLGKHLNSMERVEWLRKKAQDV-NH2 [Leu^28→Ala]”, for which the IC50 under setting [2] turned out to be 3.46 µM.
Still for that read-out and setting: with “SVSEIQLMHNLGKHLNSMERVEWLRKKLADV-NH2 [Gln^29→Ala]” the figure was 1.93 µM; with “SVSEIQLMHNLGKHLNSMERVEWLRKKLQDA-NH2 [Val^31→Ala]”, 4.91 µM.
Still for that read-out and setting: next, “SVSEIQLMHNLGKHLNSMRRVAWLRKKLQDV-NH2 [Glu^19,22→Arg,Ala]”: 0.36 ± 0.019 µM; “SVSEIQLMHNLGKHLNSMRRVEWLRKKLQDV-NH2 [Glu^19→Arg]”: 1.23 µM.

These data come from patent US8143374B2, “Polypeptide derivatives of parathyroid hormone (PTH)” (The General Hospital Corporation, priority 2006, dated 2012).
